Source: patent US20240190874A1, “SMALL MOLECULE DEGRADERS OF ANDROGEN RECEPTOR” (THE REGENTS OF THE UNIVERSITY OF MICHIGAN, priority 2021, published 2024)
pIC50: −log10 of the molar value. Read-outs that look alike come from different tables or passages of the source.

Key:
Assay type in all cases: cell-based
AR = target: T1, AR (Homo sapiens, UniProt P10275); experiment: Degradation of AR in VCaP cells; details: for Dmax: VCaP
T1 construct: Degradation of AR; Cellular potency; host or cells: VCaP cells
T1 sequence (P10275 1-920): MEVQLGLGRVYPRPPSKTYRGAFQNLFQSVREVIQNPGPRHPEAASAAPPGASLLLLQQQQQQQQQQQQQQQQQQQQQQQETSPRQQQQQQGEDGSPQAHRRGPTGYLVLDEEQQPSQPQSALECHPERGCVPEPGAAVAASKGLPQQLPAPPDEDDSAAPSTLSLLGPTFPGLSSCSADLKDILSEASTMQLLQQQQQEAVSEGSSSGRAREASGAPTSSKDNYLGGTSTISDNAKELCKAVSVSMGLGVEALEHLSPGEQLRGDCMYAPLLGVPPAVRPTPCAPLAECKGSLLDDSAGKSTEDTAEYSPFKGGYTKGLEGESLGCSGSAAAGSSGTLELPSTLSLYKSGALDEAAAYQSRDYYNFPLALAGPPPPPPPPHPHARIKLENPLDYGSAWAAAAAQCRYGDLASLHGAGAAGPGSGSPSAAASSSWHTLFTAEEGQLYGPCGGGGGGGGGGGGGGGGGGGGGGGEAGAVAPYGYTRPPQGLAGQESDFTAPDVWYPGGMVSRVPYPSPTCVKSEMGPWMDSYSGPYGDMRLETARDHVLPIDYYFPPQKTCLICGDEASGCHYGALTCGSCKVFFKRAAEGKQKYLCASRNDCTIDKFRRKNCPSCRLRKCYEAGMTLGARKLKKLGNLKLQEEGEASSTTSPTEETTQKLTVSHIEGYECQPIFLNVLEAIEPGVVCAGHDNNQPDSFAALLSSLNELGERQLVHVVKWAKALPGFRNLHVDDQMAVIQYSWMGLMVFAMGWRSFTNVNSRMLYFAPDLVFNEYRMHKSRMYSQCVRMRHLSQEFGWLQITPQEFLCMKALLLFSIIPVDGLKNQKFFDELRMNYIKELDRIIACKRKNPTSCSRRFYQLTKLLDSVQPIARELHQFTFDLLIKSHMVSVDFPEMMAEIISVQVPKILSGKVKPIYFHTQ
Procedure: (§1) Biological Assays. LNCaP and VCaP cells used were purchased from American Type Culture Collection (ATCC). LNCaP were grown in RPMI 1640 (Invitrogen) and VCaP cells were grown in DMEM with Glutamax (Invitrogen). All of the cells were supplemented with 10% fetal bovine serum (Invitrogen) at 37° C. in a humidified 5% CO2 incubator.

VCaP cells = experiment: Cellular potency (IC50) in VCaP cells
Procedure: as §1

LNCaP cells = experiment: Cellular potency (IC50) in LNCaP cells
Procedure: as §1

| Dmax (AR) | Compound | DC50 (AR; VCaP cells) | Dmax (AR; VCaP cells) | pIC50 (VCaP cells; Homo sapiens, VCaP) | pIC50 (LNCaP cells; Homo sapiens, LNCaP) | pIC50 (VCaP cells) | pIC50 (LNCaP cells) |
| --- | --- | --- | --- | --- | --- | --- | --- |
|  | C[C@H]1CC2(CCN(c3ccc(S(=O)(=O)N4CCN(C5CCN(c6ccc7c(c6)C(=O)N(C6CCC(=O)NC6=O)C7=O)CC5)CC4)cc3)CC2)CN1c1ccc(C#N)c(Cl)c1 (stereo partly shown) [compound 1] | < 1 nM | > 90% |  |  |  |  |
|  | C[C@H]1CC2(CCN(c3ccc(S(=O)(=O)N4CCN(C5CN(c6ccc7c(c6)C(=O)N(C6CCC(=O)NC6=O)C7=O)C5)CC4)cc3)CC2)CN1c1ccc(C#N)c(Cl)c1 (stereo partly shown) [compound 2] | < 1 nM | > 90% | > 8.00 | > 8.00 |  |  |
|  | C[C@H]1CC2(CCN(c3ccc(S(=O)(=O)N4CCC(CN5Cc6cc7c(cc6C5)C(=O)N(C5CCC(=O)NC5=O)C7=O)CC4)cc3)CC2)CN1c1ccc(C#N)c(Cl)c1 (stereo partly shown) [compound 3] | < 1 nM | > 90% | > 8.00 | > 8.00 |  |  |
|  | C[C@H]1CC2(CCN(c3ccc(S(=O)(=O)N4CCC(N5Cc6cc7c(cc6C5)C(=O)N(C5CCC(=O)NC5=O)C7=O)CC4)cc3)CC2)CN1c1ccc(C#N)c(Cl)c1 (stereo partly shown) [compound 4] | < 1 nM | 70 to 90% | > 8.00 | > 8.00 |  |  |
|  | C[C@H]1CC2(CCN(c3ccc(CN4CCN(C5CN(c6ccc7c(c6)C(=O)N(C6CCC(=O)NC6=O)C7=O)C5)CC4)cc3)CC2)CN1c1ccc(C#N)c(Cl)c1 (stereo partly shown) [compound 5] | < 1 nM | > 90% | > 8.00 | > 8.00 |  |  |
|  | C[C@H]1CC2(CCN(c3ccc(CN4CCN(C5CN(c6ccc7c(c6)C(=O)N(C6CCC(=O)NC6=O)C7=O)C5)CC4)cc3)CC2)CN1c1ccc(C#N)c(Cl)c1 (stereo partly shown) [compound 6] | < 1 nM |  |  |  | > 8.00 | > 8.00 |
|  | C[C@H]1CC2(CCN(c3ccc(CN4CCN(C5CN(c6ccc7c(c6)C(=O)N(C6CCC(=O)NC6=O)C7=O)C5)CC4)c(F)c3)CC2)CN1c1ccc(C#N)c(Cl)c1 (stereo partly shown) [compound 8] | < 10 nM | 70 to 90% | > 7.00 | > 7.00 |  |  |
|  | C[C@H]1CC2(CCN(c3ccc(CN4CCC(C5CN(c6ccc7c(c6)C(=O)N(C6CCC(=O)NC6=O)C7=O)C5)CC4)c(F)c3)CC2)CN1c1ccc(C#N)c(Cl)c1 (stereo partly shown) [compound 9] | < 1 nM | > 90% |  |  | > 8.00 | > 8.00 |
|  | C[C@H]1CC2(CCN(c3ccc(CN4CCN(C5CCN(c6ccc7c(c6)C(=O)N(C6CCC(=O)NC6=O)C7=O)CC5)CC4)c(F)c3)CC2)CN1c1ccc(C#N)c(Cl)c1 (stereo partly shown) [compound 10] | < 10 nM | > 90% |  |  | > 8.00 | > 8.00 |
| > 90% | COC1(CN2Cc3cc4c(cc3C2)C(=O)N(C2CCC(=O)NC2=O)C4=O)CCN(C(=O)c2ccc(N3CCC4(CC3)C[C@H](C)N(c3ccc(C#N)c(F)c3)C4)cc2)CC1 (stereo partly shown) [compound 13] | < 100 nM |  |  |  |  |  |
|  | C[C@H]1CC2(CCN(c3ccc(C4CCN(C(=O)CN5Cc6cc7c(cc6C5)C(=O)N(C5CCC(=O)NC5=O)C7=O)CC4)cc3)CC2)CN1c1ccc(C#N)c(Cl)c1 (stereo partly shown) [compound 15] | < 100 nM | > 90% |  |  |  |  |
|  | C=C1CCC(N2C(=O)c3ccc(N4CC(C5CCN(Cc6ccc(N7CCC8(CC7)C[C@H](C)N(c7ccc(C#N)c(Cl)c7)C8)cc6)CC5)C4)cc3C2=O)C(=O)N1 (stereo partly shown) [compound 16] |  | > 90% | > 8.00 | > 8.00 |  |  |
|  | C=C1CCC(N2C(=O)c3ccc(N4CCC(C5CCN(Cc6ccc(N7CCC8(CC7)C[C@H](C)N(c7ccc(C#N)c(Cl)c7)C8)cc6)CC5)CC4)cc3C2=O)C(=O)N1 (stereo partly shown) [compound 17] |  | 70 to 90% | > 7.00 | > 7.00 |  |  |
